These are literature values, as cited in US20110200632A1, “ADJUVANTING MATERIAL” (Lipotek Pty Ltd., priority 2005, published 2011).

The test system of this data set is splenocytes and macrophages. To be noted: versus Pam3Cys.

SMILES strings stand for the structures.

Turning to `CCCCCCCCCCCCCCCC(=O)OCC(CSC[C@H](N)C(=O)O)OC(=O)CCCCCCCCCCCCCCC` (stereo partly drawn) [Pam2Cys, S-[2,3-bis(palmitoyloxy)propyl]cysteine], the “stimulator of splenocytes and macrophages, compared with Pam3Cys” value was “more potent”.
